Test results reported in the NIST ThermoML archive (doi:10.1016/j.jct.2007.05.005).
± gives the expanded uncertainty stated by the source. Values belong to the molecule of their own block, whether it stands above or below them.

Columns and labels:
[1] = xn = mol fraction of the nth substance listed; details: 101.3 kPa, Liquid, x2 = 0; for speed of sound: Sing-around technique in a fixed-path interferometer
[2] = 101.3 kPa, Liquid; for speed of sound: Sing-around technique in a fixed-path interferometer

- speed of sound ([1]; 288.15 K): 1177.3 ± 2.2 m/s
- mass density ([1]; 288.15 K): 793.644 ± 0.93 kg/m3
- speed of sound ([1]; 298.15 K): 1142.4 ± 2.2 m/s
- mass density ([1]; 298.15 K): 785.082 ± 0.95 kg/m3
- speed of sound ([1]; 323.15 K): 1059.3 ± 2.1 m/s
- mass density ([1]; 323.15 K): 763.177 ± 1 kg/m3
Structure (SMILES): CCO [ethanol] + CCOC(C)(C)C

- mass density ([2]; 288.15 K): 870.736 ± 0.69 kg/m3
- speed of sound ([2]; 288.15 K): 1359.1 ± 2.2 m/s
- mass density ([2]; 298.15 K): 862.068 ± 0.72 kg/m3
- speed of sound ([2]; 298.15 K): 1316.2 ± 2.2 m/s
- mass density ([2]; 323.15 K): 840.054 ± 0.78 kg/m3
- speed of sound ([2]; 323.15 K): 1213.6 ± 2.2 m/s
Structure (SMILES): CCc1ccccc1 [ethylbenzene]

- speed of sound ([1]; 288.15 K): 1359.1 ± 2.2 m/s
- mass density ([1]; 288.15 K): 870.736 ± 0.69 kg/m3
- speed of sound ([1]; 298.15 K): 1316.2 ± 2.2 m/s
- mass density ([1]; 298.15 K): 862.068 ± 0.72 kg/m3
- speed of sound ([1]; 323.15 K): 1213.6 ± 2.2 m/s
- mass density ([1]; 323.15 K): 840.054 ± 0.78 kg/m3
Structure (SMILES): CCc1ccccc1 [ethylbenzene] + CCOC(C)(C)C

The next lines start with the molecule.

Structure (SMILES): c1ccccc1 [benzene] + CCOC(C)(C)C
- speed of sound ([1]; 288.15 K): 1345.5 ± 2.2 m/s
- mass density ([1]; 288.15 K): 884.183 ± 0.65 kg/m3
- speed of sound ([1]; 298.15 K): 1298.3 ± 2.2 m/s
- mass density ([1]; 298.15 K): 873.52 ± 0.68 kg/m3
- speed of sound ([1]; 323.15 K): 1184.6 ± 2.2 m/s
- mass density ([1]; 323.15 K): 846.641 ± 0.77 kg/m3

Structure (SMILES): CCO [ethanol]
- mass density ([2]; 288.15 K): 793.644 ± 0.93 kg/m3
- speed of sound ([2]; 288.15 K): 1177.3 ± 2.2 m/s
- mass density ([2]; 298.15 K): 785.082 ± 0.95 kg/m3
- speed of sound ([2]; 298.15 K): 1142.4 ± 2.2 m/s
- mass density ([2]; 323.15 K): 763.177 ± 1 kg/m3
- speed of sound ([2]; 323.15 K): 1059.3 ± 2.1 m/s

Structure (SMILES): Cc1ccccc1 [toluene]
- mass density ([2]; 288.15 K): 871.457 ± 0.69 kg/m3
- speed of sound ([2]; 288.15 K): 1347.5 ± 2.2 m/s
- mass density ([2]; 298.15 K): 862.173 ± 0.72 kg/m3
- speed of sound ([2]; 298.15 K): 1303.4 ± 2.2 m/s
- mass density ([2]; 323.15 K): 838.706 ± 0.79 kg/m3
- speed of sound ([2]; 323.15 K): 1196.6 ± 2.2 m/s

Structure (SMILES): Cc1ccccc1 [toluene] + CCOC(C)(C)C
- speed of sound ([1]; 288.15 K): 1347.5 ± 2.2 m/s
- mass density ([1]; 288.15 K): 871.457 ± 0.69 kg/m3
- speed of sound ([1]; 298.15 K): 1303.4 ± 2.2 m/s
- mass density ([1]; 298.15 K): 862.173 ± 0.72 kg/m3
- speed of sound ([1]; 323.15 K): 1196.6 ± 2.2 m/s
- mass density ([1]; 323.15 K): 838.706 ± 0.79 kg/m3
